From patent publication EP0307071B1, “Flavor and fragrance enhancing enzymes” (YISSUM RESEARCH DEVELOPMENT COMPANY OF THE HEBREW …, priority 1987, dated 1989) come the findings set out here.

Read-outs that look alike come from different tables or passages of the source.

This assay deals with T1, Aspergillus niger B1 endo-β-glucosidase B1 (strain CMI CC 324626) preparation (Aspergillus niger, UniProt A2RAL4).
T1 sequence (A2RAL4 20-860): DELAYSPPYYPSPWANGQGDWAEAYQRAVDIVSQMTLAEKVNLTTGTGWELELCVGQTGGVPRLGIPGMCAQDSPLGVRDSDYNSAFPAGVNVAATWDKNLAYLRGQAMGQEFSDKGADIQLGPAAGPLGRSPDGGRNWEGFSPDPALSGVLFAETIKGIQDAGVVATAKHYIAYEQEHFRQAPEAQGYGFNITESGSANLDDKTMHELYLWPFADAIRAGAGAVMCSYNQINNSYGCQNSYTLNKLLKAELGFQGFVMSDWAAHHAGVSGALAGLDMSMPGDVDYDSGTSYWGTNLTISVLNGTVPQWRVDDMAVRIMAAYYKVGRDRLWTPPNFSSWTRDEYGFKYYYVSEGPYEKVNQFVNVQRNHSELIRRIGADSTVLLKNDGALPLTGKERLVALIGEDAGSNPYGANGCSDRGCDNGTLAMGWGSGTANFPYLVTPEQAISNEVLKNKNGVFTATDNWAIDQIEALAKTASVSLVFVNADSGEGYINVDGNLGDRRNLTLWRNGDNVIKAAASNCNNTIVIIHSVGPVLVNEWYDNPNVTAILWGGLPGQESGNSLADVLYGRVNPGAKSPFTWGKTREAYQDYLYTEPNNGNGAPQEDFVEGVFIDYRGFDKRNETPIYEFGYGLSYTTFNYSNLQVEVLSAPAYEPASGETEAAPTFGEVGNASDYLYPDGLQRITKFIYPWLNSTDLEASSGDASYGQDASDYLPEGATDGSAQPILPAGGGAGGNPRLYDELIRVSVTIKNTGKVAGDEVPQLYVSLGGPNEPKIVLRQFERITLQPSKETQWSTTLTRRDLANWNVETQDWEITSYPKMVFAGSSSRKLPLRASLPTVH
In words: β-glucosidase kinetics and inhibition by standard procedures (PNPG or geranyl β rutinoside as substrates). The class given is biochemical, Aspergillus niger B1 strain CMI CC 324626. The settings on record: remaining enzyme activity. The method, then: The concentrations of free and bound monoterpenes are preferably determined according to the method of Dimitriadis et. al. (Amer J. Enol. Vitic. 35:66-71 (1984) which reference is herein incorporated by reference). The activity of the endo-β-glucosidase of the present invention is preferably determined by standard methods using either PNPG or geranyl beta rutinoside as substrates.
The β-glucosidase activity was assayed by incubating 25 µl of enzyme preparation in 1 ml of 1 mM PNPG (p-nitrophenyl-β-D-glucopyranoside) for 2 minutes at 35°. The reaction was terminated by adding 200 µl of 1M Na2CO3 and the OD was read at 399 nm.
The supernatant and the filtered samples were then separately incubated with 20 ml of 1 mg/l of wine glycosides for 20 hours at 30°. Free monoterpenes were then analyzed according to Dimitriadis et al. (Amer J. Enol. Vitic. 35:66-71 (1984)). Characterization of the A. niger B1 β-glucosidase B1 activity included the determination of pH, ionic strength, temperature, and ethanol response curves, Km, Vmax and Ki for glucose, by standard procedures. In addition, the effect of various concentrations of grape juice (Muscat of Alexandria) sucrose, fructose and SO2 on the enzyme activity was determined by conventional methods. […]

Turning to SO2, where the note is “200ppm SO2”, the “Activity in the presence of 200ppm SO2” value was 100%.
As for `O=C(CO)[C@@H](O)[C@H](O)[C@H](O)CO` [Fructose, fructose], the activity at 1 M (1M Fructose, read-out: Activity in the presence of 1M Fructose) was 90%.
Regarding `OC[C@H]1O[C@@](CO)(O[C@H]2O[C@H](CO)[C@@H](O)[C@H](O)[C@H]2O)[C@@H](O)[C@@H]1O` [sucrose], under “1M sucrose, read-out: Activity in the presence of 1M sucrose”, the activity at 1 M was determined as 90%.
